Reference: paper PMC9077246, “Novel spirocyclic tranylcypromine derivatives as lysine-specific demethylase 1 (LSD1) inhibitors” (RSC Advances, 2018)
Counter-ions that a name gives are not always drawn.

How the values were obtained:
[1] = target: T1, full-length LSD2 (Homo sapiens, UniProt Q8NB78); assay: LSD2 inhibition assay (Lance Ultra kit, TR-FRET); assay type: biochemical
T1 sequence (Q8NB78 1-822): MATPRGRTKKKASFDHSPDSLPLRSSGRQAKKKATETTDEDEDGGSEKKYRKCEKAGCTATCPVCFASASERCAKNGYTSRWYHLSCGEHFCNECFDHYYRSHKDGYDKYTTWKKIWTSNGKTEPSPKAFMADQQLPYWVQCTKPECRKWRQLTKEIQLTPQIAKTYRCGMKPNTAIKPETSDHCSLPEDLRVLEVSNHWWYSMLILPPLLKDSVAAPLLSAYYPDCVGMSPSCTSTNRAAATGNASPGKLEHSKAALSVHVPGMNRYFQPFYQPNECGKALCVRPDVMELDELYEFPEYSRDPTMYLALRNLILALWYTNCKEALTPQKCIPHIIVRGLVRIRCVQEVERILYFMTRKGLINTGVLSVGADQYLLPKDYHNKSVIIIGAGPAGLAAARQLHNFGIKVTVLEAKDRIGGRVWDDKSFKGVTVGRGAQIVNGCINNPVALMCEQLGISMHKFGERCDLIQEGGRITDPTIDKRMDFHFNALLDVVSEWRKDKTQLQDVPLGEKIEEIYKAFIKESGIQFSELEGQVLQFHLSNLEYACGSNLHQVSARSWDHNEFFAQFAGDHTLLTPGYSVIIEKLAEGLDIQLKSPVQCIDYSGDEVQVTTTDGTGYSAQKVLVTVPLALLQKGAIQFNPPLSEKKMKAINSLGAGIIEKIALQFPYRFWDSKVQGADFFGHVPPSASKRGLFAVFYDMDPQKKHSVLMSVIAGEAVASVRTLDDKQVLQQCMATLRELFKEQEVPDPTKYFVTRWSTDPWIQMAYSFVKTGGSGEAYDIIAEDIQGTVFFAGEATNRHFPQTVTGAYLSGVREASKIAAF
Procedure: (§1) LSD1 or LSD2 enzyme inhibition assay was performed with Lance Ultra LSD1 Histone H3-Lysine 4 Demethylase Assay kit (Perkin Elmer) according to the manufacturer's protocol. […] The test was carried out in triplicate. And the IC50 data was calculated using the software GraphPad Prism 5, and chosen the equation “sigmoidal dose–response (variable slope)” for curve fitting.

[2] = target: T2, Recombinant human LSD1 (172–852 aa) (Homo sapiens, UniProt O60341); assay: biochemical
Procedure: as §1

[3] = target: T3, MAO-A (Homo sapiens, UniProt P21397); assay: biochemical
T3 sequence (P21397 1-527): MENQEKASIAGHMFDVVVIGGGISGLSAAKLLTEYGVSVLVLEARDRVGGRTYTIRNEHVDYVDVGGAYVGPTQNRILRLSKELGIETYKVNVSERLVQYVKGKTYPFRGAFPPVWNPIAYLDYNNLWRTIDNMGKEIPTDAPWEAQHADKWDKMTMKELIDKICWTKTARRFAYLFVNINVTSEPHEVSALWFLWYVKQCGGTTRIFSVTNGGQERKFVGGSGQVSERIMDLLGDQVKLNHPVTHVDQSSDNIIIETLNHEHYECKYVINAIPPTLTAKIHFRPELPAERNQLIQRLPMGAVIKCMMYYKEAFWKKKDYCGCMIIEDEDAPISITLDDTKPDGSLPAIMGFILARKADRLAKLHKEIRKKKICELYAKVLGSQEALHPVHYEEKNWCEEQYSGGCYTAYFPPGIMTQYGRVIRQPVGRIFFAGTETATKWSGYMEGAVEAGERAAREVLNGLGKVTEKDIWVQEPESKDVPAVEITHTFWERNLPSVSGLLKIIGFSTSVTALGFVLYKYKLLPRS
Procedure: (§2) MAO-A and MAO-B enzymes were purchased from Sigma-Aldrich and the inhibition assay was tested with Promega MAO-Glo™ Assay kit according to the manufacturer's protocol. The luminescent signals were detected using Envision (PerkinElmer). The test was carried out in triplicate. And the IC50 data was calculated using the software GraphPad Prism 5, and chosen the equation “sigmoidal dose–response (variable slope)” for curve fitting.

[4] = target: T4, MAO-B (Homo sapiens, UniProt P27338); assay: biochemical
T4 sequence (P27338 1-520): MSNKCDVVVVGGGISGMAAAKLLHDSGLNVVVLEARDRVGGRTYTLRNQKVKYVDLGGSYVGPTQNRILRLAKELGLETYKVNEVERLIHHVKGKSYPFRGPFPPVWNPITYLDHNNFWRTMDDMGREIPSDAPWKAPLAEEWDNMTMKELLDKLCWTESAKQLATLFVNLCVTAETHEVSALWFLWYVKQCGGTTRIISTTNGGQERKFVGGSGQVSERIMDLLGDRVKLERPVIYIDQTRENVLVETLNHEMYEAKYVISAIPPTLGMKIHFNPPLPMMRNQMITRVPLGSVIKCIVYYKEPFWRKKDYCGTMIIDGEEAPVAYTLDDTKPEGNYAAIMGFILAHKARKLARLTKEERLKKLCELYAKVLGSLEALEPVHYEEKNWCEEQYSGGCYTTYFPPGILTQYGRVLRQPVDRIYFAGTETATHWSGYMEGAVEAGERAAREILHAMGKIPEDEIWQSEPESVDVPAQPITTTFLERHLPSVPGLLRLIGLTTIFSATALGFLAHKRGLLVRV
Procedure: as §2

[5] = target: T2, Recombinant human LSD1 (172–852 aa); conditions: 23a, 23b vs 21a, 21b
Procedure: as §1

[6] = target: T3, MAO-A; conditions: IC50 values for LSD1 vs. MAO-A
Procedure: as §2

[7] = MAO-A, IC50, Table 1, mean ± SEM, eight-point experiments, three independent experiments
[8] = MAO-B, IC50, Table 1, mean ± SEM, eight-point experiments, three independent experiments

| SMILES | IC50 [1] [nM] | IC50 [2] [nM] | IC50 [3, 7] [nM] | IC50 [4, 8] [nM] | fold less potent at LSD1 than the unsubstituted derivatives 21a and 21b [5] | IC50 ([3]; MAO-A IC50) [nM] | IC50 ([4]; MAO-B IC50) [nM] | selectivity index LSD1 vs. MAO-A in words [6] |
| --- | --- | --- | --- | --- | --- | --- | --- | --- |
| COc1ccc(F)cc1CN[C@@H]1CC12CCc1ccccc12 (stereo in doubt) [Compound 17a, (2R)-N-(5-Fluoro-2-methoxybenzyl)-2′,3′-dihydrospiro[cyclopropane-1,1′-inden]-2-amine] | 800 ± 270 | 6.6 ± 1.5 | 920 ± 180 | 2300 ± 400 | – | – | – | – |
| Fc1ncccc1CN[C@H]1CC12CCc1ccccc12 (stereo in doubt) [Compound 23b, (2S)-N-((2-Fluoropyridin-3-yl)methyl)-2′,3′-dihydrospiro[cyclopropane-1,1′-inden]-2-amine] | 8700 ± 800 | 70 ± 3 | 9800 ± 800 | 29000 ± 4000 | approximately 4 fold | – | – | – |
| N[C@@H]1CC12CCc1cc(-c3ccccc3)ccc12 (stereo in doubt) [Compound 28a, (2R)-5′-phenyl-2′,3′-dihydrospiro[cyclopropane-1,1′-inden]-2-amine hydrochloride] | 94000 | 100 ± 10 | – | – | – | 460 | 170 | – |
| COc1ccc(F)cc1CN[C@H]1CC12CCc1ccccc12 (stereo in doubt) [Compound 17b, (2S)-N-(5-Fluoro-2-methoxybenzyl)-2′,3′-dihydrospiro[cyclopropane-1,1′-inden]-2-amine] | 1700 ± 500 | 17 ± 3 | 120 ± 10 | 27000 ± 4000 | – | – | – | – |
| c1ccc(CN[C@H]2CC23CCc2ccccc23)cc1 (stereo in doubt) [Compound 13b, (2S)-N-Benzyl-2′,3′-dihydrospiro[cyclopropane-1,1′-inden]-2-amine] | 2000 ± 200 | 110 ± 20 | 130 ± 10 | 5100 ± 100 | – | – | – | low |
| Fc1ncccc1CN[C@@H]1CC12CCc1ccccc12 (mixture of isomers) [Compound 23a, (2R)-N-((2-Fluoropyridin-3-yl)methyl)-2′,3′-dihydrospiro[cyclopropane-1,1′-inden]-2-amine] | 13000 ± 3000 | 64 ± 1 | 9700 ± 1500 | 8200 ± 1500 | approximately 4 fold | – | – | – |
| COc1cc(F)ccc1CN[C@H]1CC12CCc1ccccc12 (stereo in doubt) [Compound 18b, (2S)-N-(4-Fluoro-2-methoxybenzyl)-2′,3′-dihydrospiro[cyclopropane-1,1′-inden]-2-amine] | 490 ± 100 | 15 ± 3 | 90 ± 10 | 31000 ± 4000 | – | – | – | low |
| COc1cc(F)ccc1CN[C@@H]1CC12CCc1ccccc12 (stereo in doubt) [Compound 18a, (2R)-N-(4-Fluoro-2-methoxybenzyl)-2′,3′-dihydrospiro[cyclopropane-1,1′-inden]-2-amine] | 660 ± 60 | 7.1 ± 1.3 | 2200 ± 700 | 8700 ± 1100 | – | – | – | – |
